Patent US4550101A, “Iron complexes of hydroxy pyridones useful for treating iron deficiency anemia” (priority 1982, dated 1985)
Where two headings read alike, the source gives them in different places. Blank lines part the entries; values can stand above or below the molecule they belong to.

Experiments:
[1] = Partition between n-octanol and aqueous tris hydrochloride (Kpart); format: physicochemical; details: for Partition Coefficient, Kpart, Iron complex [Fe^III-(compound)3]: 100 µM
Method: Acid washed glassware is used throughout and, following mixing of 5 ml of the 10^-4 M aqueous solution with 5 ml of n-octanol for 1 minute, the aqueous n-octanol mixture is centrifuged at 1,000 g for 30 seconds. The two resulting phases are separated for a concentration determination by spectrophotometry on each.

[2] = tested on: human erythrocytes; details: pH 7.4
Method: (§1) Following this period of incubation, an aliquot of the erythrocyte/medium mixture was placed above a layer of silcone oil and the erythrocytes separated by centrifugation through the oil. The ^59 Fe levels associated with the erythrocytes and the incubation medium were then counted.

[3] = tested on: cat intestine; details: in vivo
Method: (§2) The total ^59 Fe present in the kidneys and urine was then measured in each case.
(§3) As well as the kidneys, various other tissues of the cat which recieved the Fe(III) 1-ethyl-3-hydroxypyrid-2-one were studied to assess the percentage of the original ^59 Fe dose which was present.

[4] = tested on: apotransferrin; assay: Ability of iron complexes to donate iron to apotransferrin; format: biochemical; details: within 10 minutes, 37° C., pH 7.4, 10^-4 M complex, 10^-4 M apotransferrin
Method: At 10, 20, 30 and 60 minute intervals 1 ml aliquots were removed from the media and added to a PD10 colum. 0.5 ml fractions were collected directly into scintillation vials for counting. The ^59 Fe associated with both the apotransferrin and the ligand was estimated as a function of time. […] Thus, although both the 3-hydroxypyrid-2-ones and the 3-hydroxypyrid-4-ones are able to denote iron to apotransferrin, the former are the more efficient.

[5] = tested on: rat jejunal sac; assay: Iron uptake into the serosal space of the inverted rat jejunal sac
Method: Rats (male Sprague Dawley, 60 g) were killed and the jejunum removed, everted and cut into three segments (4 cm length). The segments were tied at both ends and filled with Krebs Ringer buffer (0.2 ml) and incubated in Krebs Ringer buffer containing ^59 Fe complexes at 37° C. for periods up to 1 hour. The contents of the sac were counted for ^59 Fe and measured spectrophotometrically.

[6] = Clearance and tissue distribution of 59Fe after intravenous injection in the cat; format: in vivo
Excerpt: as §3

[7] = tested on: human erythrocytes; assay: Accumulation of iron complexes by human erythrocytes; details: 1 hour, 37° C., pH 7.4, 10^-3 M complex, 5% erythrocyte suspension; mean of at least three determinations
Method: as §1

[8] = tested on: cat intestine; assay: In vivo permeability of cat intestine towards iron complexes: 59Fe in blood, kidneys, urine and tissues after administration into the small intestine; details: for Concentration of [59Fe] in blood: 1 mg iron, pyridone complex with 20-fold excess of free pyridone
Method: as §2, §3

[9] = n-octanol/tris hydrochloride, pH 7.4
[10] = n-octanol / 20 mM tris hydrochloride pH 7.4, 20° C., 10^-4 M, read-out: Partition Coefficient, Kpart, Free Compound (converted)
[11] = relative to ferric chloride as 1, 37° C., up to 1 hour

SMILES: CCn1cccc(O)c1=O [1-ethyl-3-hydroxypyrid-2-one]
logD at 100 µM [1, 9]: -0.284

logD at 100 µM [1, 10]: 0.724
SMILES: CCCCn1ccc(=O)c(O)c1C [1-butyl-3-hydroxy-2-methylpyrid-4-one, 1-Butyl-3-hydroxy-2-methylpyrid-4-one]

Partition Coefficient, Kpart, Iron complex [Fe^III-(compound)3] [1, 9]: 6.20
Amount of complex entering erythrocytes [2]: 710 n.mole
SMILES: CCCn1cccc([O-])c1=O.CCCn1cccc([O-])c1=O.CCCn1cccc([O-])c1=O.[Fe+3] [3:1 iron (III) complex of 3-hydroxy-1-propylpyrid-2-one]

logD at 100 µM [1, 10]: -0.0223
SMILES: Cc1c(O)c(=O)ccn1C(C)C [3-Hydroxy-2-methyl-1-(1'-methylethyl)pyrid-4-one]

percentage of the total dose in the urine ([3]; cat, 4 h): 21%
clearance into the urine [3]: cleared rapidly into the urine
SMILES: O=C([O-])CN(CCN(CC(=O)[O-])CC(=O)[O-])CC(=O)[O-].[Fe+3] [Fe^III EDTA, iron (III) EDTA]

logD at 100 µM [1, 9]: 0.491
SMILES: CC(C)n1cccc(O)c1=O [3-hydroxy-1-(1'-methylethyl)-pyrid-2-one, 3-hydroxy-1-(1'-methylethyl)pyrid-2-one]

SMILES: CCn1cccc([O-])c1=O.CCn1cccc([O-])c1=O.CCn1cccc([O-])c1=O.[Fe+3] [iron complex of 1-ethyl-3-hydroxypyrid-2-one]
Partition Coefficient, Kpart, Iron complex [Fe^III-(compound)3] ([1]; n-octanol / 20 mM tris hydrochloride pH 7.4, 20° C., 10^-4 M): 1.06
iron removed from the iron complex by apotransferrin [4]: over 90%
Relative Iron Uptake [5, 11]: 37
dose appearing in the urine [6]: less than 1%
half life of clearance from the circulation [6]: 45 min
Percentage of original 59Fe dose, Blood ([6]; after 4 hours): 7%
Percentage of original 59Fe dose, Heart ([6]; after 4 hours): 1.1%
Percentage of original 59Fe dose, Kidneys ([6]; after 4 hours): 1%
Percentage of original 59Fe dose, Liver ([6]; after 4 hours): 5.3%
Percentage of original 59Fe dose, Skeletal Muscle ([6]; after 4 hours): 0.5%
Percentage of original 59Fe dose, Spleen ([6]; after 4 hours): 0.7%
Percentage of original 59Fe dose, Urine ([6]; after 4 hours): 0.5%
Percentage of original 59Fe dose, Reticuloendothelial System (Bone Marrow) ([6]; after 4 hours, estimated): ~80%
Amount of complex entering erythrocytes [7]: 250 n.mole
Concentration of [59Fe] in blood ([8]; 20 minutes after administration into small intestine): 200 c.p.m.
Concentration of [59Fe] in blood ([8]; 40 minutes after administration into small intestine): 475 c.p.m.
Concentration of [59Fe] in blood ([8]; 60 minutes after administration into small intestine): 643 c.p.m.
Concentration of [59Fe] in blood ([8]; 80 minutes after administration into small intestine): 661 c.p.m.
Concentration of [59Fe] in blood ([8]; 100 minutes after administration into small intestine): 784 c.p.m.
Concentration of [59Fe] in blood ([8]; 120 minutes after administration into small intestine): 870 c.p.m.
Concentration of [59Fe] in blood ([8]; 140 minutes after administration into small intestine): 834 c.p.m.
Concentration of [59Fe] in blood ([8]; 160 minutes after administration into small intestine): 750 c.p.m.
Concentration of [59Fe] in blood ([8]; 180 minutes after administration into small intestine): 900 c.p.m.
clearance into the urine ([8]; 4 hours, into small intestine): very slow
percentage of the total dose in the kidneys ([8]; 4 hours, into small intestine): 0.05%
percentage of the total dose in the urine ([8]; 4 hours, into small intestine): no more than 0.01%
Concentration of [59Fe] in blood ([8]; 240 minutes after administration into small intestine): 948 c.p.m.
59Fe in the sternum ([8]; confirms reticuloendothelial system (bone marrow)): high levels of ^59 Fe in the sternum
distribution of the iron in the body ([8]; intrajejunal): widely distributed throughout the body
Percentage of original 59Fe dose, Blood ([8]; intrajejunal, after 4 hours): 3%
Percentage of original 59Fe dose, Heart ([8]; intrajejunal, after 4 hours): 1.5%
Percentage of original 59Fe dose, Intestinal Tissue ([8]; intrajejunal, after 4 hours): 30%
Percentage of original 59Fe dose, Kidneys ([8]; intrajejunal, after 4 hours): 0.05%
Percentage of original 59Fe dose, Liver ([8]; intrajejunal, after 4 hours): 1.6%
Percentage of original 59Fe dose, Skeletal Muscle ([8]; intrajejunal, after 4 hours): 0.8%
Percentage of original 59Fe dose, Spleen ([8]; intrajejunal, after 4 hours): 0.1%
Percentage of original 59Fe dose, Urine ([8]; intrajejunal, after 4 hours): 0.01%
Percentage of original 59Fe dose, Reticuloendothelial System (Bone Marrow) ([8]; intrajejunal, after 4 hours, estimated): ~60%

logD at 100 µM [1, 9]: -0.108
SMILES: CCCn1cccc(O)c1=O [3-hydroxy-1-propylpyrid-2-one]

Partition Coefficient, Kpart, Iron complex [Fe^III-(compound)3] [1, 9]: 13.50
Amount of complex entering erythrocytes [2]: 770 n.mole
SMILES: CC(C)n1cccc([O-])c1=O.CC(C)n1cccc([O-])c1=O.CC(C)n1cccc([O-])c1=O.[Fe+3] [3:1 iron (III) complex of 3-hydroxy-1-(1'-methylethyl)pyrid-2-one]

logD at 100 µM [1, 9]: -2.82
Relative Iron Uptake [5, 11]: 0.4
SMILES: O=C1O[C@H]([C@@H](O)CO)C(O)=C1O [Fe^III ascorbate, iron (III) ascorbate, reference compound]

SMILES: O=C([O-])[C@H](O)[C@@H](O)[C@H](O)[C@H](O)CO.O=C([O-])[C@H](O)[C@@H](O)[C@H](O)[C@H](O)CO.[Fe+2] [Fe^II gluconate]
Relative Iron Uptake [5]: 1.6

Partition Coefficient, Kpart, Iron complex [Fe^III-(compound)3] [1, 9]: 7.70
Amount of complex entering erythrocytes [2]: 1630 n.mole
SMILES: CCCCn1ccc(=O)c([O-])c1C.CCCCn1ccc(=O)c([O-])c1C.CCCCn1ccc(=O)c([O-])c1C.[Fe+3] [3:1 iron (III) complex of 1-butyl-3-hydroxy-2-methylpyrid-4-one]

logD at 100 µM [1, 10]: -0.398
SMILES: CCn1ccc(=O)c(O)c1C [1-ethyl-3-hydroxy-2-methylpyrid-4-one, 1-Ethyl-3-hydroxy-2-methylpyrid-4-one]

Partition Coefficient, Kpart, Iron complex [Fe^III-(compound)3] [1, 9]: 0.10
Amount of complex entering erythrocytes [2]: 60 n.mole
SMILES: Cn1cccc([O-])c1=O.Cn1cccc([O-])c1=O.Cn1cccc([O-])c1=O.[Fe+3] [3:1 iron (III) complex of 3-hydroxy-1-methylpyrid-2-one]

logD at 100 µM [1, 9]: -0.678
SMILES: Cc1c(O)c(=O)ccn1C [3-hydroxy-1,2-dimethylpyrid-4-one]

logD at 100 µM [1, 9]: -0.357
SMILES: Cn1cccc(O)c1=O [3-hydroxy-1-methylpyrid-2-one]

Partition Coefficient, Kpart, Iron complex [Fe^III-(compound)3] [1, 9]: 0.05
Amount of complex entering erythrocytes [2]: 25 n.mole
SMILES: Cc1c([O-])c(=O)ccn1C.Cc1c([O-])c(=O)ccn1C.Cc1c([O-])c(=O)ccn1C.[Fe+3] [3:1 iron (III) complex of 3-hydroxy-1,2-dimethylpyrid-4-one]

Partition Coefficient, Kpart, Iron complex [Fe^III-(compound)3] [1, 9]: 0.20
Amount of complex entering erythrocytes [2]: 22 n.mole
SMILES: Cc1c([O-])c(=O)ccn1C(C)C.Cc1c([O-])c(=O)ccn1C(C)C.Cc1c([O-])c(=O)ccn1C(C)C.[Fe+3] [3:1 iron (III) complex of 3-hydroxy-1-(1'-methylethyl)-2-methylpyrid-4-one]

Partition Coefficient, Kpart, Iron complex [Fe^III-(compound)3] [1, 9]: 0.03
Amount of complex entering erythrocytes [2]: 20 n.mole
SMILES: CCn1ccc(=O)c([O-])c1C.CCn1ccc(=O)c([O-])c1C.CCn1ccc(=O)c([O-])c1C.[Fe+3] [3:1 iron (III) complex of 1-ethyl-3-hydroxy-2-methylpyrid-4-one]
iron removed from the iron complex by apotransferrin [4]: 55%

SMILES: [Cl][Fe]([Cl])[Cl] [FeCl3, ferric chloride]
Relative Iron Uptake [5]: 1

Amount of complex entering erythrocytes [2]: 53 n.mole
SMILES: CCCn1ccc(=O)c([O-])c1C.CCCn1ccc(=O)c([O-])c1C.CCCn1ccc(=O)c([O-])c1C.[Fe+3] [3:1 iron (III) complex of 3-hydroxy-2-methyl-1-propylpyrid-4-one]
